According to the NIST ThermoML archive (doi:10.1016/j.jct.2005.06.011):

Experiments:
[1] = xn = mol fraction of the nth substance listed; conditions: 101 kPa, Liquid; for speed of sound: Linear variable-path acoustic interferometer
[2] = refractive index (Na D-line) (dimensionless); xn = mol fraction of the nth substance listed; conditions: 101 kPa, Liquid

CC1CCCCC1 [methylcyclohexane] + CCCCO
Conditions | mass density, 298.15 K [kg/m3] | mass density, 303.15 K [kg/m3] | mass density, 308.15 K [kg/m3] | refractive index, 298.15 K | refractive index, 303.15 K | refractive index, 308.15 K | speed of sound, 298.15 K [m/s] | viscosity, 298.15 K [mPa·s] | viscosity, 303.15 K [mPa·s] | viscosity, 308.15 K [mPa·s]
[1], x1 = 0.1021 | 801.93 | 797.96 | 793.95 | – | – | – | 1263 | 2.396 | 2.122 | 1.848
[1], x1 = 0.2041 | 795.62 | 791.47 | 787.32 | – | – | – | 1258 | 2.205 | 1.957 | 1.709
[1], x1 = 0.3027 | 790.23 | 786.03 | 781.87 | – | – | – | 1253 | 2.021 | 1.797 | 1.573
[1], x1 = 0.4013 | 785.45 | 781.24 | 776.99 | – | – | – | 1248 | 1.834 | 1.636 | 1.438
[1], x1 = 0.5039 | 780.86 | 776.57 | 772.29 | – | – | – | 1243 | 1.639 | 1.468 | 1.296
[1], x1 = 0.6066 | 776.73 | 772.4 | 768.04 | – | – | – | 1238 | 1.443 | 1.288 | 1.153
[1], x1 = 0.7014 | 773.21 | 768.83 | 764.46 | – | – | – | 1233 | 1.262 | 1.141 | 1.021
[1], x1 = 0.7963 | 770.14 | 765.74 | 761.34 | – | – | – | 1227 | 1.08 | 0.9828 | 0.8858
[1], x1 = 0.8981 | 767.52 | 763.15 | 758.77 | – | – | – | 1222 | 0.8808 | 0.8104 | 0.74
[1], x1 = 1 | 764.99 | 760.66 | 756.3 | – | – | – | 1217 | 0.6757 | 0.631 | 0.5902
[2], x1 = 0.1021 | – | – | – | 1.4036 | 1.4015 | 1.3994 | – | – | – | –
[2], x1 = 0.2041 | – | – | – | 1.4034 | 1.4008 | 1.3982 | – | – | – | –
[2], x1 = 0.3027 | – | – | – | 1.406 | 1.4035 | 1.4009 | – | – | – | –
[2], x1 = 0.4013 | – | – | – | 1.4087 | 1.4062 | 1.4037 | – | – | – | –
[2], x1 = 0.5039 | – | – | – | 1.4105 | 1.4081 | 1.4057 | – | – | – | –
[2], x1 = 0.6066 | – | – | – | 1.4121 | 1.4099 | 1.4076 | – | – | – | –
[2], x1 = 0.7014 | – | – | – | 1.4147 | 1.4122 | 1.4097 | – | – | – | –
[2], x1 = 0.7963 | – | – | – | 1.4169 | 1.4143 | 1.4117 | – | – | – | –
[2], x1 = 0.8981 | – | – | – | 1.4193 | 1.4167 | 1.414 | – | – | – | –
[2], x1 = 1 | – | – | – | 1.4217 | 1.4192 | 1.4163 | – | – | – | –

CC(C)CO [2-methyl-1-propanol] + CC1CCCCC1
x2 = 0
Conditions | mass density, 298.15 K [kg/m3] | mass density, 303.15 K [kg/m3] | mass density, 308.15 K [kg/m3] | refractive index, 298.15 K | refractive index, 303.15 K | refractive index, 308.15 K | speed of sound, 298.15 K [m/s] | viscosity, 298.15 K [mPa·s] | viscosity, 303.15 K [mPa·s] | viscosity, 308.15 K [mPa·s]
[1] | 809.31 | 805.23 | 801.11 | – | – | – | 1170 | 3.097 | 2.635 | 2.249
[2] | – | – | – | 1.3932 | 1.3917 | 1.3896 | – | – | – | –

CC1CCCCC1 [methylcyclohexane] + CC(C)CCO
x1 = 1
Conditions | mass density, 298.15 K [kg/m3] | mass density, 303.15 K [kg/m3] | mass density, 308.15 K [kg/m3] | refractive index, 298.15 K | refractive index, 303.15 K | refractive index, 308.15 K | speed of sound, 298.15 K [m/s] | viscosity, 298.15 K [mPa·s] | viscosity, 303.15 K [mPa·s] | viscosity, 308.15 K [mPa·s]
[1] | 764.99 | 760.66 | 756.3 | – | – | – | 1217 | 0.6757 | 0.631 | 0.5902
[2] | – | – | – | 1.4217 | 1.4192 | 1.4163 | – | – | – | –

CC1CCCCC1 [methylcyclohexane] + CCO
Conditions | mass density, 298.15 K [kg/m3] | mass density, 303.15 K [kg/m3] | mass density, 308.15 K [kg/m3] | refractive index, 298.15 K | refractive index, 303.15 K | refractive index, 308.15 K | speed of sound, 298.15 K [m/s] | viscosity, 298.15 K [mPa·s] | viscosity, 303.15 K [mPa·s] | viscosity, 308.15 K [mPa·s]
[1], x1 = 0.1023 | 779.57 | 775.21 | 770.8 | – | – | – | 1167 | 0.9923 | 0.9068 | 0.8212
[1], x1 = 0.2031 | 775.92 | 771.51 | 767.07 | – | – | – | 1172 | 0.9225 | 0.8458 | 0.7691
[1], x1 = 0.304 | 772.55 | 768.07 | 763.6 | – | – | – | 1178 | 0.8558 | 0.788 | 0.7202
[1], x1 = 0.405 | 770.25 | 765.74 | 761.26 | – | – | – | 1183 | 0.808 | 0.7464 | 0.6848
[1], x1 = 0.5061 | 768.4 | 763.87 | 759.36 | – | – | – | 1189 | 0.7632 | 0.7079 | 0.6525
[1], x1 = 0.6029 | 767.13 | 762.62 | 758.09 | – | – | – | 1195 | 0.7293 | 0.677 | 0.6248
[1], x1 = 0.6998 | 766.01 | 761.51 | 756.97 | – | – | – | 1200 | 0.6984 | 0.6477 | 0.5971
[1], x1 = 0.8016 | 765.34 | 760.87 | 756.37 | – | – | – | 1206 | 0.6857 | 0.6392 | 0.5927
[1], x1 = 0.9034 | 764.79 | 760.27 | 755.77 | – | – | – | 1212 | 0.6762 | 0.6323 | 0.5884
[1], x1 = 1 | 764.99 | 760.66 | 756.3 | – | – | – | 1217 | 0.6757 | 0.631 | 0.5902
[2], x1 = 0.1023 | – | – | – | 1.371 | 1.3686 | 1.3662 | – | – | – | –
[2], x1 = 0.2031 | – | – | – | 1.3796 | 1.3764 | 1.3744 | – | – | – | –
[2], x1 = 0.304 | – | – | – | 1.3881 | 1.3853 | 1.3825 | – | – | – | –
[2], x1 = 0.405 | – | – | – | 1.3949 | 1.3921 | 1.3893 | – | – | – | –
[2], x1 = 0.5061 | – | – | – | 1.4017 | 1.3989 | 1.3961 | – | – | – | –
[2], x1 = 0.6029 | – | – | – | 1.4068 | 1.4038 | 1.4008 | – | – | – | –
[2], x1 = 0.6998 | – | – | – | 1.412 | 1.4087 | 1.4054 | – | – | – | –
[2], x1 = 0.8016 | – | – | – | 1.417 | 1.4135 | 1.41 | – | – | – | –
[2], x1 = 0.9034 | – | – | – | 1.4192 | 1.4169 | 1.4146 | – | – | – | –
[2], x1 = 1 | – | – | – | 1.4217 | 1.4192 | 1.4163 | – | – | – | –
